Values joined by “and” are separate entries in the source; they are usually repeats but may differ in a detail not shown here. Equal entries are not always repeated. Where two headings read alike, the source gives them in different places.
Target: T1, GPR139 (arrestin-3 recruitment) (Homo sapiens, UniProt Q6DWJ6)
T1 construct: expressed in transfected cells; host or cells: HEK293A (transient, Lipofectamine 2000)
T1 sequence (Q6DWJ6 1-353): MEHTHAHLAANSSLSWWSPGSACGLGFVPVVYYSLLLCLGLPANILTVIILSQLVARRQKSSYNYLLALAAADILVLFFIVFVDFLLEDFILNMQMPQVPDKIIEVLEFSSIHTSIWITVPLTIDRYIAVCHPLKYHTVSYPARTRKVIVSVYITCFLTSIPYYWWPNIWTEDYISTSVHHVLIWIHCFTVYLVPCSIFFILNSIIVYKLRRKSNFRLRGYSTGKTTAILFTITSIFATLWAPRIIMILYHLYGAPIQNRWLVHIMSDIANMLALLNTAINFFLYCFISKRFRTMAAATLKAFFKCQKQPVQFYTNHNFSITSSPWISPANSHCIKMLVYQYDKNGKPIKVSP
Assay: Arrestin-3 recruitment assay (enhanced bystander BRET), HEK293A
Assay type: cell-based
Conditions: for Emax: HEK293-A, normalized to JNJ-63533054 (JNJ(S)); for EC50: read-out: pEC50 Arrestin-3 (converted); for Arrestin-3 recruitment: individual replicates
Description: Primary screening and pharmacological characterization of compounds were performed using a CHO-K1 cell line that stably expresses human GPR139 (GPR139-CHOk1). The GPR139-CHOk1 cell line was kindly provided by H. Lundbeck A/S, Denmark[24]. GPR139-CHOk1 cells were grown in Ham’s F-12 Kaighn’s Modification Medium (ThermoFisher #21127030) supplemented with 10% dialyzed fetal bovine serum (US origin, ThermoFisher #26400044), 100 units/mL Penicillin-Streptomycin (ThermoFisher #15140122), and 1 mg/mL Geneticin (ThermoFisher #11811031). […] M1R-CHOk1 cells were purchased from The Missouri S&T cDNA Resource Center (#CEM100TN00). M1R-CHOk1 cells were grown in Ham’s F12 Medium (ThermoFisher #21765029) supplemented with 10% fetal bovine serum (Brazilian origin, ThermoFisher #10270106), 100 units/mL Penicillin-Streptomycin, and 0.25 mg/mL Geneticin. HEK293A cells transiently transfected with GPR139 were used for additional pharmacological assessment of signaling pathways activated by GPR139. HEK239A cells were generously provided by Dr. Asuka Inoue, Tohoku University, Japan. HEK293A cells were grown in Dulbecco’s Modified Eagle Medium (ThermoFisher #31966047) supplemented with 10% dialyzed fetal bovine serum and 100 units/mL Penicillin-Streptomycin. Cell lines were maintained at 37 °C in humidified incubator equilibrated with 5% CO2.
The enhanced bystander BRET arrestin recruitment assay developed by the work of Donthamsetti et al.[58] was used to measure the arrestin-3 recruitment by GPR139. HEK293A cells were reverse transfected 20–24 h prior to the assay. 50,000 cells were plated in each well of white opaque tissue culture treated 96-well plates (PerkinElmer #6005680) previously coated with poly-D-lysine. The transfection solutions were prepared as described, and 10 µL transfection solution was mixed with 100 µL cells in each well. The cells in each well were transfected with 6 ng GPR139, 0.6 ng RLuc8-Arrestin3-Sp1, 6 ng GRK5, and 62.5 ng MEMlinker[doubly palmitoylated fragment of GAP43]-Citrine-SH3 using 200 nL Lipofectamine 2000 Transfection Reagent. Each transfection was normalized to 80 ng total DNA with pcDNA3.1. On the day of the experiment, the cells were washed with HEPES buffer and incubated for 2 h in HEPES buffer prior to measurements. Test compounds were diluted in HEPES buffer from DMSO stocks (final DMSO concentration of maximally 0.3%). Renilla luciferase 8 (RLuc8) substrate Coelenterazine h (Cayman Chemical #16894) was diluted in HEPES buffer to 5 µM (final). Coelenterazine h was added, and the cells were incubated for 5 min followed by stimulation with test compounds. Simultaneous dual emission was measured at 535 nm and 475 nm on LUMIstar Omega Microplate Reader (BMG Labtech) at 37 °C over 30 min. The BRET ratio of 535 nm/475 nm (Citrine/RLuc8), reflecting the translocation of arrestin from the cytosol to the membrane, was used to determine the arrestin recruitment. The BRET response-time course area under the curve of the basal response obtained with buffer condition was subtracted from the absolute response at a given test compound concentration, and the responses were normalized to the one obtained with 10 µM JNJ-63533054.
Pharmacological data and statistical analyses were performed in GraphPad Prism v9–10 (Graphpad Software Inc., San Diego, CA), which are also specifically described in the figure and table legends. The functional assay responses were normalized to buffer (0%) and Lundbeck Cmp 1a or JNJ-63533054 (100%), for Ca^2+ and IP1 experiments in the GPR139-CHOk1 stable cell line or Ca^2+, G protein activation, and arrestin-3 recruitment experiments in the HEK293A cells transiently transfected with GPR139, respectively. Data are from at least three independent experiments, unless stated otherwise. Concentration-response curves were fitted applying non-linear regression using the log (agonist) versus response model with variable slope. ANOVA was applied for comparing results and determining statistical significance. […]

Compound: Cc1cscc1-c1nc(CC(=O)N[C@H](C)c2ccccc2)no1 [1.1(R)]
- Emax: 81 ± 5%
- EC50 (Supplementary Table 6): 2510 nM
- Arrestin-3 recruitment (log [compound] M -4.5): 72 % of JNJ-63533054 and 73 % of JNJ-63533054 and 89 % of JNJ-63533054
- Arrestin-3 recruitment (log [compound] M -5.0): 69 % of JNJ-63533054 and 65 % of JNJ-63533054 (2×)
- Arrestin-3 recruitment (log [compound] M -5.5): 54 % of JNJ-63533054 and 40 % of JNJ-63533054 and 41 % of JNJ-63533054
- Arrestin-3 recruitment (log [compound] M -6.0): 36 % of JNJ-63533054 and 10 % of JNJ-63533054 and 17 % of JNJ-63533054
- Arrestin-3 recruitment (log [compound] M -6.5): 17 % of JNJ-63533054 and 3.28 % of JNJ-63533054 and 1.44 % of JNJ-63533054
- Arrestin-3 recruitment (log [compound] M -7.0): 12 % of JNJ-63533054 and 3.28 % of JNJ-63533054 and 2 % of JNJ-63533054
- Arrestin-3 recruitment (log [compound] M -7.5): 1.13 % of JNJ-63533054 and 0.124 % of JNJ-63533054 and 0.145 % of JNJ-63533054

Compound: Cc1cscc1-c1nc(CC(=O)N[C@@H](C)c2ccccc2)no1 [1.1(S)]
- Emax: 96 ± 1%
- EC50 (Supplementary Table 6): 79.4 nM
- Arrestin-3 recruitment (log [compound] M -4.5): 96 % of JNJ-63533054 and 88 % of JNJ-63533054 and 101 % of JNJ-63533054
- Arrestin-3 recruitment (log [compound] M -5.0): 90 % of JNJ-63533054 and 91 % of JNJ-63533054 (2×)
- Arrestin-3 recruitment (log [compound] M -5.5): 89 % of JNJ-63533054 and 102 % of JNJ-63533054 and 91 % of JNJ-63533054
- Arrestin-3 recruitment (log [compound] M -6.0): 109 % of JNJ-63533054 and 107 % of JNJ-63533054 and 84 % of JNJ-63533054
- Arrestin-3 recruitment (log [compound] M -6.5): 82 % of JNJ-63533054 and 87 % of JNJ-63533054 and 66 % of JNJ-63533054
- Arrestin-3 recruitment (log [compound] M -7.0): 57 % of JNJ-63533054 and 71 % of JNJ-63533054 and 50 % of JNJ-63533054
- Arrestin-3 recruitment (log [compound] M -7.5): 23 % of JNJ-63533054 and 32 % of JNJ-63533054 and 4.63 % of JNJ-63533054

Compound: C[C@@H](NC(=O)CNC(=O)c1cccc(Cl)c1)c1ccccc1 [JNJ(R), reference compound]
- Arrestin-3 recruitment (log [compound] M -4.5): 43 % of JNJ-63533054 and 70 % of JNJ-63533054 and 77 % of JNJ-63533054
- Arrestin-3 recruitment (log [compound] M -5.0): 41 % of JNJ-63533054 and 39 % of JNJ-63533054 and 33 % of JNJ-63533054
- Arrestin-3 recruitment (log [compound] M -5.5): 37 % of JNJ-63533054 and 35 % of JNJ-63533054 and 17 % of JNJ-63533054
- Arrestin-3 recruitment (log [compound] M -6.0): 20 % of JNJ-63533054 and 22 % of JNJ-63533054 and 12 % of JNJ-63533054
- Arrestin-3 recruitment (log [compound] M -6.5): 14 % of JNJ-63533054 and 8 % of JNJ-63533054 and 1.75 % of JNJ-63533054
- Arrestin-3 recruitment (log [compound] M -7.0): 4 % of JNJ-63533054 and 10 % of JNJ-63533054 and 2 % of JNJ-63533054
- Arrestin-3 recruitment (log [compound] M -7.5): 0 % of JNJ-63533054 (2×) and 0.153 % of JNJ-63533054
- EC50: 15800 nM

Compound: CC(NC(=O)CNC(=O)c1cccc(Cl)c1)c1ccccc1 (centres unmarked) [JNJ-63533054, reference compound]
- Emax: 100 ± 4%
- EC50 (Supplementary Table 6): 158 nM
- Arrestin-3 recruitment (log [compound] M -4.5, listed as JNJ (S)): 94 % of JNJ-63533054 and 101 % of JNJ-63533054 and 107 % of JNJ-63533054
- Arrestin-3 recruitment (log [compound] M -5.0, listed as JNJ (S)): 95 % of JNJ-63533054 and 99 % of JNJ-63533054 and 103 % of JNJ-63533054
- Arrestin-3 recruitment (log [compound] M -5.5, listed as JNJ (S)): 90 % of JNJ-63533054 and 100 % of JNJ-63533054 and 94 % of JNJ-63533054
- Arrestin-3 recruitment (log [compound] M -6.0, listed as JNJ (S)): 85 % of JNJ-63533054 and 100 % of JNJ-63533054 and 78 % of JNJ-63533054
- Arrestin-3 recruitment (log [compound] M -6.5, listed as JNJ (S)): 68 % of JNJ-63533054 and 81 % of JNJ-63533054 and 55 % of JNJ-63533054
- Arrestin-3 recruitment (log [compound] M -7.0, listed as JNJ (S)): 45 % of JNJ-63533054 (2×) and 36 % of JNJ-63533054
- Arrestin-3 recruitment (log [compound] M -7.5, listed as JNJ (S)): 8 % of JNJ-63533054 and 15 % of JNJ-63533054 and 0.123 % of JNJ-63533054

Reference: article PMC12775434, “Ultra-large virtual screening unveils potent agonists of the neuromodulatory orphan receptor GPR139” (Nature Communications, 2025)
